Marks after values point to notes of the source that are not given here.
How the values were obtained:
[1] = system: SIBO-related hyperalgesia; assay: Treatment of SIBO-related hyperalgesia (cases); format: in vivo, human
Protocol: Two adult female subjects with IBS required additional pharmacologic manipulations to treat their SIBO-related hyperalgesia. In the first case, SIBO was eradicated by antibiotic treatment. However, the subject complained of persistent feelings of rectal distension, consistent with residual hyperalgesia related to SIBO. The subjected was then administered Colpermin (peppermint oil) capsules and Elavil (5 mg taken at night) that alleviated their SIBO-related hyperalgesic symptoms, presumably by reducing intestinal wall tension and decreasing mechanoreceptor activation.
The second subject with a diagnosis of IBS was also found to have SIBO, as detected by LBHT. Their SIBO was eradicated by a combined treatment with antibiotic, intestinal lavage with Go-Lytely, and cisapride (10 mg tid) to increase their abnormally low phase III interdigestive motility. After eradication of SIBO, this subject similarly complained of persistent SIBO-related hyperalgesic symptoms of the bowel.

[2] = system: rapid upper gut transit and diarrhea; assay: Continued pre-meal oleate/oleic acid treatment: diarrhea, stool output, symptoms; format: in vivo, human
From the text: Continuing oleic acid treatment at home was offered to Aresponders≅ (i.e., patients who experienced a greater than 100% increase in baseline transit time with 3.2 g oleic acid). Of the 36 responders out of the original 45 patients, 18 provided records of stool volume and frequency on- and off-treatment for comparison. The inconvenient and unappealing nature of stool collection and measurement were the primary reasons reported by responders who chose not to participate in stool collection. After completing a set of three preliminary breath hydrogen tests, each participating responder was asked to refrain from taking oleic acid for two days in order to measure off-treatment stool output for a 24-hour period. Patients were issued a stool pattern record form and a stool collection container with graduated volume markings to record the frequency and volume of bowel movements. After two days without oleic acid, each patient took 3.2 g of oleic acid mixed with 25 mL of Ensure emulsion three times a day, 30 minutes before breakfast, lunch and dinner. After taking oleic acid for two days, patients recorded stool output for another 24-hour period. With this oleic acid emulsion treatment, stool frequency decreased from 6.9±0.8 to 5.4±0.9 bowel movements per 24-hour period (p<0.05), and stool volume decreased from 1829.0±368.6 to 1322.5±256.9 per 24-hour period (p<0.05).
The patient was a person with a history of adolescent-onset, persistent diarrhea. […] They presented with complaints of excessive gas, postprandial bloating, diarrhea and urgency, and 3 to 7 liquid bowel movements per day. Their upper gut transit times were (min) 30 (0 g oleic acid), 117 (1.6 g oleic acid) and 101 (3.2 g oleic acid).

upper gut transit [3] = assay: Upper gut transit time by lactulose breath hydrogen test after oleate or oleic acid; format: in vivo, human; details: for upper gut transit time: case, diarrhea-predominant IBS
From the text: In a preliminary study, five patients with persistent diarrhea for 3 to 22 months, (one each due to vagal denervation, ileal resection for Crohn's disease, and vagotomy and antrectomy, and two due to idiopathic causes) were studied. […] This test relies on the metabolism of certain carbohydrate materials (e.g. lactulose) by the microbial flora within the caecum. By generating gas which can be detected in the expired air, it is possible to make some estimation about the initial arrival of the administered material within the colon.
Each patient received orally in random order, 0, 1.6 or 3.2 g of sodium oleate in 25 mL Ensure (Ross), followed by 100 mL water. Thirty minutes after each dose of oleate, patients received 10 g lactulose orally, followed by 25 mL water. Breath samples were collected in commercially available breath testing bags (Quintron, Menomonee Falls, Wis.) every 10-15 minutes, and the hydrogen content of the samples was measured using a breath analyzer (Microlyzer Model 12, Quintron Instruments, Menomonee Falls, Wis.), calibrated against gas samples of known hydrogen concentration. With a syringe, a 40-mL sample of the expired breath was withdrawn from the collection bag and analyzed immediately for hydrogen concentration (ppm). The hydrogen concentration value from each sample was plotted against time. Upper gut transit time was defined as the time in minutes from ingestion of lactulose (t0) until a rise of H2 of >10 ppm. Data were further analyzed using 1-way repeated measures analysis of variance (ANOVA)(See Table 4).
The effect of an active lipid on transit time was determined in 8 normal human subjects (1 male and 7 females with a mean age of 35±2.6 years [SE]) and 45 patients (20 males and 25 females with a mean age of 49.1±2.5 [SE], age range from 18 to 90 years) with chronic diarrhea (i.e., continuous diarrhea for more than two months) associated with a wide variety of diagnoses and conditions (e.g., Crohn's disease; irritable bowel syndrome; short bowel syndrome; Indiana pouch; AIDS; ulcerative colitis; vagotomy; antrectomy; ileostomy; partial and complete colectomy; colon cancer; diabetes mellitus type 1; pancreatic insufficiency; radiation enteropathy; esophagectomy/gastric pull-up; total and subtotal gastrectomy; gastrojejunostomy), made by referring gastroenterologists. The method was the same as described above, except oleic acid (Penta Manufacturing, Livingston, N.J.) replaced sodium oleate in 50 mL of Ensure emulsion. All subjects refrained from taking antibiotics for at least two weeks before each testing date and during stool measurement periods. Patients were also instructed to refrain from anti-diarrheal drugs, laxatives, somatostatin analogues or anticholinergics for at least 48 hours before each test. In both the normal and patient groups, there was a significant slowing of upper gut transit time in response to oleic acid, as summarized in Table 5 below (p<0.001).

upper gut transit [4] = assay: as above; format: in vivo, human; details: 4 grams of oleic acid
intestinal transit = assay: Intestinal transit in multi-fistulated dogs, cumulative % recovery of 99mTc-DTPA; format: in vivo, dog
From the text: The experiments described below are based on a previously described chronic multi-fistulated dog model, employing surgically fistulated male or female mongrel dogs weighing about 25 kg each. (Lin, H. C. et al., Inhibition of gastric emptying by glucose depends on length of intestine exposed to nutrient, Am. J. Physiol. 256:G404-G411 [1989]). The small intestines of the dogs were each about 300 cm long from the pylorus to the ileal-cecal valve. The duodenal fistula was situated 15 cm from the pylorus; the mid-gut fistula was situated 160 cm from the pylorus. Occluding Foley catheters (balloon catheters that are inflated to produce a water-tight seal with the lumenal surface) were placed into the distal limb of a duodenal fistula and a mid-gut fistula, fat or other test agents were administered lumenally to the thus compartmentalized Aproximal≅ section of the gut, i.e., between the fistulas, or to the compartmentalized Adistal≅ section of the gut, i.e., beyond the mid-gut fistula. Perfusate was pumped into a test section through the catheter at a rate of 2 mL/minute. Test agents were administered along with buffer perfusate, but some test agents were administered intravenously, where specifically noted.
Intestinal transit measurements were made by tracking the movement of a liquid marker across the approximately 150 cm intestinal test segment by delivering about 20 μCi ^99mTc chelated to diethyltriamine pentaacetic acid (DTPA)(Cunningham, K. M. et al., Use of technicium-99m (V)thiocyanate to measure gastric emptying of fat, J. Nucl. Med. 32:878-881 [1991]) as a bolus into the test segment after 60 minutes of a 90-minute perfusion. The output from the mid-gut fistula was collected every 5 min thereafter for 30 minutes, which period is illustrated in FIGS. 9-23. Using a matched dose of ^99mTc to represent the original radioactivity (Johansson, C., Studies of gastrointestinal interactions, Scand. J. Gastroenterol. 9(Suppl 28):1-60 [1974]; Zierler, K., A simplified explanation of the theory of indicator dilution for measurement of fluid flow and volume and other distributive phenomena, Bull. John Hopkins 103:199-217 [1958]), the radioactivity delivered into the animal as well as the radioactivity of the recovered fistula output were all measured using a gamma well counter. After correcting all counts to time zero, intestinal transit was calculated as the cumulative percent recovery of the delivered ^99mTc-DTPA. This method has been well validated over the years and appreciated for its advantage of minimal inadvertent marker loss. […] There was a very high level of marker recovery, with 90% of the marker recovered by 30 minutes and 98% of the marker recovered by 45 minutes.

ileal brake = details: rats, subcutaneous administration; Brown et al. 1993; cited from earlier work
SIBO [5] = assay: Case: autism with bowel symptoms, Augmentin; format: in vivo, human; details: one patient
SIBO [6] = assay: Comparison of antibiotic regimes for eradicating SIBO, follow-up lactulose breath hydrogen test (LBHT); format: in vivo, human; details: follow-up LBHT
Protocol: Subjects were tested after an overnight fast. […] Each breath sample was then analyzed for hydrogen content with a gas chromatograph (Quintron Model DP, Quintron Instrument Co., Division of E.F. Brewer Co, Menomonee Falls, Wis. 53051), standardized using a QuinGas standard as instructed by the manufacturer. Hydrogen peaks were plotted before and after an antimicrobial treatment regimen for comparison. The normal range for the second hydrogen peak was 0 to 20 ppm. Subjects referred to the Cedars-Sinai GI Motility Program for a lactulose breath hydrogen test (LBHT) to assess SIBO were entered into a database. Those that tested positive for SIBO were given antibiotic treatment by their referring physician and in some cases, returned for a follow-up LBHT to assess eradication of SIBO. During the follow-up LBHT, subjects were asked which antibiotic they were given to treat their SIBO. The eradication rate of each antibiotic was evaluated. Of the 771 subjects in the database, 561 (73%) tested positive for SIBO. […] (See Table 1 below). […] None of the commonly used antibiotics was universally successful in eradicating overgrowth.

## CN(C)CCC=C1c2ccccc2CCc2ccccc21 [Elavil, amitriptyline]
[1]; first subject, Colpermin capsules and Elavil (5 mg at night) together
  SIBO-related hyperalgesic symptoms: alleviated

## COc1cc(N)c(Cl)cc1C(=O)NC1CCN(CCCOc2ccc(F)cc2)CC1OC (stereo not drawn) [cisapride]
[1]; second subject, combined antibiotic, lavage with Go-Lytely and cisapride (10 mg tid)
  eradication of SIBO: eradicated

## CCCCCCCC/C=C\CCCCCCCC(=O)O [oleic acid]
[2]; 18 responders, 3.2 g in 25 mL Ensure three times a day, off-treatment 6.9±0.8
  stool frequency, bowel movements per 24-hour period: 5.4±0.9
[2]; 18 responders, on treatment, off-treatment 1829.0±368.6
  stool volume per 24-hour period: 1322.5±256.9
[2]; case, diarrhea-predominant IBS
  symptoms of gaseousness, bloating and rectal urgency: complete relief
[2]; case, diarrhea-predominant IBS, continuing treatment
  bowel frequency: single, solid bowel movement per day
[2]; only adverse effect reported by any patient
  adverse effect reported: slight and transient burning sensation in the mouth or throat
Upper gut transit [3]; 3.2 g oleic acid, out of the original 45 patients
  responders (greater than 100% increase in baseline transit time): 36
Upper gut transit [3]; Normal subjects (8), 1.6 g oleic acid in 50 mL Ensure
  Transit time (mean ± SE): 116 ± 11.1 min
Upper gut transit [3]; Normal subjects (8), 3.2 g oleic acid
  Transit time (mean ± SE): 140 ± 11.5 min
Upper gut transit [3]; Patients with chronic diarrhea (45), 1.6 g oleic acid
  Transit time (mean ± SE): 57.2 ± 4.5 min
Upper gut transit [3]; Patients with chronic diarrhea (45), 3.2 g oleic acid
  Transit time (mean ± SE): 83.3 ± 5.2 min
Upper gut transit [3]; 1.6 g oleic acid
  upper gut transit time: 117 min
Upper gut transit [3]; 3.2 g oleic acid
  upper gut transit time: 101 min
Upper gut transit [4]; IBD patients (n=18)
  mean transit time: 114.6 ± 16.0 min
Upper gut transit [4]; normal subjects (n=5)
  mean transit time: 136.0 ± 15.4 min

## Cc1nccn1CC1CCc2c(c3ccccc3n2C)C1=O (stereo not drawn) [ondansetron]
Intestinal transit; Buffer + NE + Ond perfused lumenally 0.7 mg/kg/h
  Transit Across Proximal Gut (Cumulative % Marker Recovered): 63.0 ± 4.4^b %
Intestinal transit; IV PYY + ondansetron 0.7 mg/kg/h in proximal gut
  marker recovery: 78.3±4.8%
Intestinal transit; IV PYY + ondansetron in distal gut
  marker recovery: 12.9±12.9%
Intestinal transit; distal gut 5-HT + ondansetron 0.7 mg/kg bolus in distal gut
  marker recovery: 79.5±2.4%
Intestinal transit; distal gut 5-HT + ondansetron 0.7 mg/kg bolus in proximal gut
  marker recovery: 73.8±9.5%
Intestinal transit; ileal brake + 6.25 mg ondansetron bolus, proximal gut
  marker recovery: 35.4%
Intestinal transit; ileal brake + 12.5 mg ondansetron bolus, proximal gut
  marker recovery: 55.8%
Intestinal transit; ileal brake + 25 mg ondansetron bolus, proximal gut
  marker recovery: 77.6%
Intestinal transit; ileal brake + intravenous ondansetron 0.15 mg/kg/1.5 h, n=2
  marker recovery: 13±2.0%
Intestinal transit; ileal brake + lumenal ondansetron 0.7 mg/kg/h in proximal gut, n=2
  marker recovery: 78±2.4%
Intestinal transit; ileal brake + ondansetron in distal gut, n=4
  marker recovery: 22.8±2.6%
Intestinal transit; ileal brake + ondansetron in proximal gut, n=4
  marker recovery: 68.5±2.7%
Intestinal transit; intravenous norepinephrine + ondansetron 0.7 mg/kg/h in proximal gut
  marker recovery: 63.4%
Intestinal transit; lumenal buffer + lumenal ondansetron, Buffer-NS 96.0±4.0%
  marker recovery: 57.9±15.9%
Intestinal transit; lumenal oleate + lumenal ondansetron 0.7 mg/kg bolus, proximal gut
  marker recovery: 73.7±10.6%
Ileal brake
  ileal brake induced by ileal infusion of lipid: abolished the ileal brake
  intestinal transit of a baked bean meal: delayed

## Augmentin
SIBO [5]
  concentration and behavior: some positive concentration and behavioral changes
SIBO [5]; 500 mg twice a day for ten days
  bowel habits: substantial improvement
SIBO [6]
  % Patients with SIBO Eradicated: 50%
